Measurements as given in ChEMBL document CHEMBL4831500, “Discovery of first-in-class imidazothiazole-based potent and selective ErbB4 (HER4) kinase inhibitors” (Eur J Med Chem, 2021).

Legend:
[1] = biological target: Serine/threonine-protein kinase B-raf (Homo sapiens, UniProt P15056, V600E); assay: Inhibition of BRAF V600E mutant (unknown origin) incubated for 40 mins in presence of Mg/ATP mix by [gamma p33]-ATP based scintillation counting method
Homo sapiens [2] = species on record: Homo sapiens; assay: Selectivity ratio of IC50 for inhibition of JNK3 (unknown origin) to IC50 for inhibition of ErbB4 (unknown origin); conditions: dose 10.0 µM, time 40.0 min
[3] = biological target: Mitogen-activated protein kinase 10 (Homo sapiens, UniProt P53779); assay: Inhibition of JNK3 (unknown origin) at 10 uM incubated for 40 mins in presence of Mg/ATP mix by [gamma p33]-ATP based scintillation counting method relative to control
T47D = assay: Antiproliferative activity against human T47D cells assessed as cell growth inhibition measured after 48 hrs by SRB assay; assay type: functional, cell-based
MOLT-4 [4] = assay: Antiproliferative activity against human MOLT-4 cells assessed as cell growth inhibition at 10 uM measured after 48 hrs by SRB assay relative to control; assay type: functional
[5] = biological target: T1, Receptor tyrosine-protein kinase erbB-4 (Homo sapiens, UniProt Q15303); assay: Inhibition of ErbB4 expressed in human T47D cells at antiproliferative IC50 in presence of -neuregulin 1 incubated for 90 mins by sandwich ELISA relative to control; assay type: cell-based
T1 sequence (Q15303 whole entry): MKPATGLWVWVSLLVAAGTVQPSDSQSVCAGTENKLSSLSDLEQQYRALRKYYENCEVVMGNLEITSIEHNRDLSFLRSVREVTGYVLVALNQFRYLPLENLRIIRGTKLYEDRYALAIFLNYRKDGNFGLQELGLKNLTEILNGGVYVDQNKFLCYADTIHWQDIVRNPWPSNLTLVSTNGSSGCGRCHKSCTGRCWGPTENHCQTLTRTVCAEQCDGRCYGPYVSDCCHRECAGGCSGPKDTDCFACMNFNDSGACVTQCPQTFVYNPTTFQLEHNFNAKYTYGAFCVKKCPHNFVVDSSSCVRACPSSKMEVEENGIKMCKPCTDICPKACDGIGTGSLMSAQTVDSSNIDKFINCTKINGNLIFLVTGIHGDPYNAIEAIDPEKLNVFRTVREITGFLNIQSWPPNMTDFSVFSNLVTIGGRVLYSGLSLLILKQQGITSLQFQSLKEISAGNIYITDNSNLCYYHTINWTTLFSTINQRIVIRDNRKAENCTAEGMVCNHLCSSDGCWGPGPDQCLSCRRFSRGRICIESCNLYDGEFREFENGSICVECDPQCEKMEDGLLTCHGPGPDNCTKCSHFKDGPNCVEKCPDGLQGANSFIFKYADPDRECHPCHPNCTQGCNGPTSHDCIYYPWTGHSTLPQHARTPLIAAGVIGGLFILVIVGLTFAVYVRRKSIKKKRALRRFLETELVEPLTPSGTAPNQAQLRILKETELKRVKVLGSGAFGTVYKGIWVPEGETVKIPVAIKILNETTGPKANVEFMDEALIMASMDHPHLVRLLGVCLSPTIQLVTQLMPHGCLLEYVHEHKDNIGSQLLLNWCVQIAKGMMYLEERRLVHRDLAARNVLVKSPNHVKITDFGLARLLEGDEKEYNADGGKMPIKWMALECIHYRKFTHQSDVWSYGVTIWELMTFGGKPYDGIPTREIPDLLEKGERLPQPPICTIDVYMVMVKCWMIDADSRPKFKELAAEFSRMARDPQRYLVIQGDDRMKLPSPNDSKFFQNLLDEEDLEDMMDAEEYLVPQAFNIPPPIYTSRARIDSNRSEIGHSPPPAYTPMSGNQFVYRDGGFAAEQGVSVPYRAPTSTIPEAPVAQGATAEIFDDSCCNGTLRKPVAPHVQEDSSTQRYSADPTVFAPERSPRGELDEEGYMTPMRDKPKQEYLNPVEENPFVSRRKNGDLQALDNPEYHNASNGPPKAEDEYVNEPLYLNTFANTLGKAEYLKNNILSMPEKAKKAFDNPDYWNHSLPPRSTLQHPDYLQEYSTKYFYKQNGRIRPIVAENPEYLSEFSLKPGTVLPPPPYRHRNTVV

NCI-H522 = assay: Antiproliferative activity against human NCI-H522 cells assessed as cell growth inhibition at 10 uM measured after 48 hrs by SRB assay relative to control; assay type: functional
[6] = biological target: Serine/threonine-protein kinase B-raf (Homo sapiens, UniProt P15056); assay: Inhibition of wild type B-RAF (unknown origin) at 10 uM incubated for 40 mins in presence of Mg/ATP mix by [gamma p33]-ATP based scintillation counting method relative to control
CYP3A4 = CYP3A4 (Homo sapiens, UniProt P08684); assay: Potency index, ratio of test compound IC50 to ketoconazole IC50 for inhibition of CYP3A4 (unknown origin) using BOMCC as a substrate incubated for 20 mins by fluorescence based analysis; assay type: ADME; conditions: probe BOMCC
OVCAR-4 [7] = assay: Antiproliferative activity against human OVCAR-4 cells assessed as cell growth inhibition at 10 uM measured after 48 hrs by SRB assay relative to control; assay type: functional
hERG (KCNH2) = hERG (KCNH2) (Homo sapiens, UniProt Q12809); assay: Safety index, ratio of test compound IC50 to E-4031 IC50 for inhibition of human ERG incubated for 3 hrs by competitive fluorescence tracer binding based assay; conditions: read-out: Ratio IC50
MDA-MB-468 = assay: Antiproliferative activity against human MDA-MB-468 cells assessed as cell growth inhibition at 10 uM measured after 48 hrs by SRB assay relative to control; assay type: functional
[8] = system: Panel NCI-60 (60 carcinoma cell lines); assay: Growth inhibition of human panel NCI-60 (60 carcinoma cells) assessed as growth percent at 10 uM measured after 48 hrs by SRB assay relative to control; assay type: functional; conditions: read-out: Activity
U-251 = assay: Antiproliferative activity against human U-251 cells assessed as cell growth inhibition measured after 48 hrs by SRB assay; assay type: functional, cell-based; conditions: U-251, 48 h
MOLT-4 [9] = assay: Antiproliferative activity against human MOLT-4 cells assessed as cell growth inhibition measured after 48 hrs by SRB assay; assay type: functional, cell-based; conditions: MOLT-4, 48 h
Homo sapiens [10] = species on record: Homo sapiens; assay: Selectivity index, ratio of IC50 for inhibition of BRAF V600E mutant (unknown origin) to IC50 for inhibition of ErbB4 (unknown origin); conditions: dose 10.0 µM, time 40.0 min
DU-145 [11] = assay: Antiproliferative activity against human DU-145 cells assessed as cell growth inhibition measured after 48 hrs by SRB assay; assay type: functional, cell-based; conditions: DU-145, 48 h
[12] = biological target: T2, Epidermal growth factor receptor (Homo sapiens, UniProt P00533); assay: Inhibition of EGFR (unknown origin) incubated for 40 mins in presence of Mg/ATP mix by [gamma p33]-ATP based scintillation counting method
T2 sequence (P00533 whole entry): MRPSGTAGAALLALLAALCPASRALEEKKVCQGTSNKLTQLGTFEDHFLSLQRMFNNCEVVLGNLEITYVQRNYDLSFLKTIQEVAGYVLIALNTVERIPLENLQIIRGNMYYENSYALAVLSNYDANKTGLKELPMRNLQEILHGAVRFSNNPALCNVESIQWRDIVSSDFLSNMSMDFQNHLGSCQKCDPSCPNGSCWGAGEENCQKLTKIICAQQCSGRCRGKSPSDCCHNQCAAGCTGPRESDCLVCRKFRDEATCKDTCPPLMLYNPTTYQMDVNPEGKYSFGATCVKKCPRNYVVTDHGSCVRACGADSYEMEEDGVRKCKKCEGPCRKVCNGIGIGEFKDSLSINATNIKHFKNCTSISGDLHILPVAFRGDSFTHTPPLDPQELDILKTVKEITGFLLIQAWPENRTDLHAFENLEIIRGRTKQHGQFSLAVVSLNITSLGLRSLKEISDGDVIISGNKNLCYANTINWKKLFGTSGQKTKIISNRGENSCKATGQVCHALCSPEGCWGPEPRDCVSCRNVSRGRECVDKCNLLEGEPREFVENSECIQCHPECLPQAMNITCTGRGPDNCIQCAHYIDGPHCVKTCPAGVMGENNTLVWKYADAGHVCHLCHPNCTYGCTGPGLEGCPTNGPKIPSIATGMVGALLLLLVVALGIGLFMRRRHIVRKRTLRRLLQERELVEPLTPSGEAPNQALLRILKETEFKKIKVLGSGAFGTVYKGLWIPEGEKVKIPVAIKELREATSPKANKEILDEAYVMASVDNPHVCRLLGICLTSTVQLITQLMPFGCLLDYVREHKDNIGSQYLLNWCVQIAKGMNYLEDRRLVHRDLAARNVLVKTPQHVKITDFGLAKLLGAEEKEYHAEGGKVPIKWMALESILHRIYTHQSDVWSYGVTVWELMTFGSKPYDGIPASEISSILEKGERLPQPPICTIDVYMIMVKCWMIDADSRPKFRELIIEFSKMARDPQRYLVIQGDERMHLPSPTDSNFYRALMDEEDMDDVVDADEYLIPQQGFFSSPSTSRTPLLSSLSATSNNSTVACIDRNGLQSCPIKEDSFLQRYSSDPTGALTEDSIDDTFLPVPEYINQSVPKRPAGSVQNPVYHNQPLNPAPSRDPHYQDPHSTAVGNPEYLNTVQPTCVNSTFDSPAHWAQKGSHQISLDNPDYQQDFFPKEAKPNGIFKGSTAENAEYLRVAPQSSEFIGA

Homo sapiens [13] = species on record: Homo sapiens; assay: Selectivity ratio of IC50 for inhibition of EGFR (unknown origin) to IC50 for inhibition of ErbB4 (unknown origin); conditions: dose 10.0 µM, time 40.0 min
Cytochrome P450 2D6 = Cytochrome P450 2D6 (Homo sapiens, UniProt P10635); assay: Inhibition of CYP2D6 (unknown origin) using EOMCC as a substrate incubated for 20 mins by fluorescence based analysis; assay type: ADME
[14] = biological target: Tyrosine-protein kinase JAK3 (Homo sapiens) (UniProt P52333); assay: Inhibition of JAK3 (unknown origin) at 10 uM incubated for 40 mins in presence of Mg/ATP mix by [gamma p33]-ATP based scintillation counting method relative to control
[15] = system: Serine/threonine-protein kinase B-raf (Homo sapiens), P15056 [V600E]; assay: Inhibition of BRAF V600E mutant (unknown origin) at 10 uM incubated for 40 mins in presence of Mg/ATP mix by [gamma p33]-ATP based scintillation counting method relative to control
SK-MEL-5 [16] = assay: Antiproliferative activity against human SK-MEL-5 cells assessed as cell growth inhibition measured after 48 hrs by SRB assay; assay type: functional, cell-based; conditions: SK-MEL-5, 48 h
[17] = biological target: RAF proto-oncogene serine/threonine-protein kinase (Homo sapiens, UniProt P04049); assay: Inhibition of RAF1 (unknown origin) at 10 uM incubated for 40 mins in presence of Mg/ATP mix by [gamma p33]-ATP based scintillation counting method relative to control
RAF proto-oncogene serine/threonine-protein kinase, sequence (P04049 whole entry): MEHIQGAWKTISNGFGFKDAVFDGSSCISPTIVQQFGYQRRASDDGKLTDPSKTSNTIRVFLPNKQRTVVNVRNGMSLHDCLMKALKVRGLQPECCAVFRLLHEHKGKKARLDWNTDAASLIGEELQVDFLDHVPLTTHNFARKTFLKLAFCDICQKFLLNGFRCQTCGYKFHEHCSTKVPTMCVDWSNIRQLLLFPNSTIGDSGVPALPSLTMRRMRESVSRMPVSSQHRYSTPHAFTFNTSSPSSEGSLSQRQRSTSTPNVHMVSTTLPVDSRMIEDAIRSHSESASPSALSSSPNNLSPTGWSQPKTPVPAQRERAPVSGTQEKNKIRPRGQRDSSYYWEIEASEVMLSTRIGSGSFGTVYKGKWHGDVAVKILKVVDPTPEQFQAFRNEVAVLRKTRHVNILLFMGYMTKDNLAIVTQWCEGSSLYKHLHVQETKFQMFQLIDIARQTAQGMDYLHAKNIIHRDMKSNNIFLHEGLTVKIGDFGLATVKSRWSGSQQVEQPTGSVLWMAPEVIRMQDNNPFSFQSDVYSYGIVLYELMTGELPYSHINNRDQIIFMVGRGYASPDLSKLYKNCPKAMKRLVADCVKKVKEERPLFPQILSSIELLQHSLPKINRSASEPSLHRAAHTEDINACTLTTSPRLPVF

[18] = biological target: T1, Receptor tyrosine-protein kinase erbB-4; assay: Inhibition of ErbB4 in human T47D cells assessed as suppression of neuregulin 1-induced autophosphorylation incubated for 90 mins by sandwich ELISA; assay type: cell-based
[19] = biological target: T1, Receptor tyrosine-protein kinase erbB-4; assay: Inhibition of ErbB4 (unknown origin) incubated for 40 mins in presence of Mg/ATP mix by [gamma p33]-ATP based scintillation counting method
OVCAR-4 [20] = assay: Antiproliferative activity against human OVCAR-4 cells assessed as cell growth inhibition measured after 48 hrs by SRB assay; assay type: functional, cell-based; conditions: OVCAR-4, 48 h
[21] = biological target: T2, Epidermal growth factor receptor; assay: Inhibition of EGFR (unknown origin) at 10 uM incubated for 40 mins in presence of Mg/ATP mix by [gamma p33]-ATP based scintillation counting method relative to control
[22] = biological target: Tyrosine-protein kinase JAK3 (Homo sapiens, UniProt P52333); assay: Inhibition of JAK3 (unknown origin) incubated for 40 mins in presence of Mg/ATP mix by [gamma p33]-ATP based scintillation counting method
[23] = Cytotoxicity against human WI-38 cells assessed as cell growth inhibition at 10 uM measured after 48 hrs by SRB assay relative to control; assay type: cell-based
[24] = biological target: Voltage-gated inwardly rectifying potassium channel KCNH2 (Homo sapiens, UniProt Q12809); assay: Inhibition of human ERG incubated for 3 hrs by competitive fluorescence tracer binding based assay
Voltage-gated inwardly rectifying potassium channel KCNH2, sequence (Q12809 whole entry): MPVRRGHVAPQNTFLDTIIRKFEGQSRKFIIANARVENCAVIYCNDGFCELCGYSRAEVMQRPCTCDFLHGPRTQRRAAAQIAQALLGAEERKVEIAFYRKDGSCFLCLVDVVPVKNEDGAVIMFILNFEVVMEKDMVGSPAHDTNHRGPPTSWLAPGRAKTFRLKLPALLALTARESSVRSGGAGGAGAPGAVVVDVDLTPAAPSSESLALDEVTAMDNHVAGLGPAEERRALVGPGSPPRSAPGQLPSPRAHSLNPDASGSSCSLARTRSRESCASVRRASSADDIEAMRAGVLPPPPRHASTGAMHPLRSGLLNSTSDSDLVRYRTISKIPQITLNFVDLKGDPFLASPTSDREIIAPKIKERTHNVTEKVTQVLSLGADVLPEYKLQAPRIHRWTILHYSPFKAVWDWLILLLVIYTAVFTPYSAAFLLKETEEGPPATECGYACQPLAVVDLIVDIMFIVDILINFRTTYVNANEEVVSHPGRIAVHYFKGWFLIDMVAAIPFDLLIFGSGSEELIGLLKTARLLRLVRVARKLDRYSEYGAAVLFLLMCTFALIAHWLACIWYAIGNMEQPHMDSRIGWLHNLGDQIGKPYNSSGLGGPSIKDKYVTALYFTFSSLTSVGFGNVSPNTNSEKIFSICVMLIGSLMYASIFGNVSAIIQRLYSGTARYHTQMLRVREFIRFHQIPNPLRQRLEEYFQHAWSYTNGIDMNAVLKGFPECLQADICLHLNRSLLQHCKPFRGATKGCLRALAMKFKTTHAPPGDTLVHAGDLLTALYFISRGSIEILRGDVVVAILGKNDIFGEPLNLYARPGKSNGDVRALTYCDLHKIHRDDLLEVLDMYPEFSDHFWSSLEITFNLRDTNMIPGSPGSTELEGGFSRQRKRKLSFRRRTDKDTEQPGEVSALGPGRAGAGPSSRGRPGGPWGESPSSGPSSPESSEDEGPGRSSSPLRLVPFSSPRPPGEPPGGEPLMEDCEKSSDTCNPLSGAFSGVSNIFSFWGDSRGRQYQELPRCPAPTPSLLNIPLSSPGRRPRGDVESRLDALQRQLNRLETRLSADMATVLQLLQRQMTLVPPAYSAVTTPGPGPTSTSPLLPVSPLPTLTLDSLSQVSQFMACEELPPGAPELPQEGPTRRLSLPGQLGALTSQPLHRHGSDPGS

Cytochrome P450 3A4 = Cytochrome P450 3A4 (Homo sapiens, UniProt P08684); assay: Inhibition of CYP3A4 (unknown origin) using BOMCC as a substrate incubated for 20 mins by fluorescence based analysis; assay type: ADME
SK-MEL-5 [25] = assay: Antiproliferative activity against human SK-MEL-5 cells assessed as cell growth inhibition at 10 uM measured after 48 hrs by SRB assay relative to control; assay type: functional
DU-145 [26] = assay: Antiproliferative activity against human DU-145 cells assessed as cell growth inhibition at 10 uM measured after 48 hrs by SRB assay relative to control; assay type: functional

Serine/threonine-protein kinase B-raf (Homo sapiens, UniProt P15056, V600E), sequence (P15056 2-766 V600E limits assumed): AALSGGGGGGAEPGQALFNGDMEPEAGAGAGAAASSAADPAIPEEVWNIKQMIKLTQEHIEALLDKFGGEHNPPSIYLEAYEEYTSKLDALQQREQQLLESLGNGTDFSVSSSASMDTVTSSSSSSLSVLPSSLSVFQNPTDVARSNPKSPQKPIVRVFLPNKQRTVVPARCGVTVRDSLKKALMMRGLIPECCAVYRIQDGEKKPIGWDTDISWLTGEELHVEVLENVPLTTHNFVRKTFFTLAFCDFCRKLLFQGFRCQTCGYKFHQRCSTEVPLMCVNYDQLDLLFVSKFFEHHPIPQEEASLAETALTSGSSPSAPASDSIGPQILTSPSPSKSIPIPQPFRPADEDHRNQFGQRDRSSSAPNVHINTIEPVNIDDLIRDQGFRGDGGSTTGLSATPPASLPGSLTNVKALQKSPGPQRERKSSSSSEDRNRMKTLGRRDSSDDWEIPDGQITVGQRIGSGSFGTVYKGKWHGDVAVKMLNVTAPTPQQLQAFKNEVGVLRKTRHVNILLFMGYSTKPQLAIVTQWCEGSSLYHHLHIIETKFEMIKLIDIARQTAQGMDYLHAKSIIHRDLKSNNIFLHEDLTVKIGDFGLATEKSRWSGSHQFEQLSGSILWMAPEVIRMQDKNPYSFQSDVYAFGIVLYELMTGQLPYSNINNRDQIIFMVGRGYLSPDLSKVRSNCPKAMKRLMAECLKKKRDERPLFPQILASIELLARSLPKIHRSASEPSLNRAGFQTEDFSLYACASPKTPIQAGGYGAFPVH

IC50 [1]: 13.2 µM
Ratio IC50 (Homo sapiens [2]): 341
inhibition [3]: 66%
IC50 (T47D): 4.08 µM
inhibition [5]: > 50%
inhibition [6]: 34.3%
IC50 (U-251): 6.08 µM
IC50 (MOLT-4 [9]): 1020 nM
Ratio IC50 (Homo sapiens [10]): 866
IC50 (DU-145 [11]): 1670 nM
IC50 [12]: 9.92 µM
Ratio IC50 (Homo sapiens [13]): 651
IC50 (Cytochrome P450 2D6): > 90 µM
inhibition [14]: 77.5%
inhibition [15]: 62.1%
IC50 (SK-MEL-5 [16]): 510 nM
inhibition [17]: 23%
IC50 [18]: 3.3 nM
IC50 [19]: 15.2 nM
IC50 (OVCAR-4 [20]): 3.78 µM
inhibition [21]: 63.6%
IC50 [22]: 8.35 µM
IC50 (Cytochrome P450 3A4): 17.8 µM
Structure (SMILES): CS(=O)(=O)c1nccc(-c2c(-c3cccc(OCc4ccccc4)c3)nc3sccn23)n1
inhibition at 10 µM (MOLT-4 [4]): 73.5%
inhibition at 10 µM (NCI-H522): 94.1%
selectivity ratio at 20 min (CYP3A4): 7480
inhibition at 10 µM (OVCAR-4 [7]): 26.2%
selectivity ratio at 3 h (hERG (KCNH2)): 513
inhibition at 10 µM (MDA-MB-468): 165%
growth at 10 µM [8]: 63.4%
inhibition at 48 h, 10 µM [23]: 56.4%
IC50 [24]: 12.4 µM
inhibition at 10 µM (SK-MEL-5 [25]): 99.9%
inhibition at 10 µM (DU-145 [26]): 160%
